Assay [1] has as its target T1, His-HAO1 (recombinant glycolate oxidase, 2-hydroxyacid oxidase) (Homo sapiens, UniProt Q9UJM8).
T1 sequence (Q9UJM8 1-370): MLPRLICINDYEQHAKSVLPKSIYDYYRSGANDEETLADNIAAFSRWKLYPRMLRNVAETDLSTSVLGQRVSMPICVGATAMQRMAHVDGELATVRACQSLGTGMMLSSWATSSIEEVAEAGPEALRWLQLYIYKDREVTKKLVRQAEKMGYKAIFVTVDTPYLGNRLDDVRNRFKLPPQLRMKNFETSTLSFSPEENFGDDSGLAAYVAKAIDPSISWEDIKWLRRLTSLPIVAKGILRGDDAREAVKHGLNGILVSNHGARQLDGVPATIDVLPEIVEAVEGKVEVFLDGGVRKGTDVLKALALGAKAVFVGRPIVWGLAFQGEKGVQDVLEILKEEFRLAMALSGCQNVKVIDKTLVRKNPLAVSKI
The assay can be described thus: SPR. The format is binding.

For assay [2], the target named is T1, His-HAO1 (recombinant glycolate oxidase, 2-hydroxyacid oxidase). The assay can be described thus: DSF thermal stabilisation, SYPRO Orange. The format is binding.
The target is the same in assay [3]. The assay can be described thus: Amplex Red activity assay. It counts as biochemical.
The next assay addresses T2, HAO1-HiBiT (Homo sapiens, UniProt Q9UJM8).
T2 sequence (Q9UJM8 1-370): T1 sequence (Q9UJM8 1-370)
The assay can be described thus: SplitLuc CETSA in HEK293T lysate, LgBiT luminescence. The format is biochemical.

SMILES strings stand for the structures.

A word on the Kd: it is the free concentration of one partner at which half of the binding sites on the other are occupied at equilibrium, for simple one-to-one binding. Broadly, the EC50 is the concentration that produces a half-maximal response. A word on the IC50: it is the concentration at which inhibition is half-maximal. For the compound `NS(=O)(=O)c1ccc(Cc2c(-c3ccc(F)c(-c4ccc(Oc5nn[nH]c5C(=O)O)cc4)c3)nn(-c3nc(C(=O)O)cs3)c2CC2CC2)cc1F` [compound 1, Compound 1], the Kd in assay [1] was 3.9 nM. For the same compound, the EC50 in assay [2] is 5010 nM; at HAO1-HiBiT it was 2200 nM. Also, the IC50 in assay [3] is 25.1 nM.
The matching figures for `O=C(O)c1nn[nH]c1Oc1ccc(-c2ccc(C3CC(F)(F)C3)cc2)cc1` [compound 2, Compound 2]: 4.4 nM, 3980 nM, 1800 nM and 20 nM.

These data come from doi:10.1101/2024.06.26.600887v2 (biorxiv, 2024).
